Active and inactive are the calls of the source. The rule behind the calls is not given here.
Assays:
[1] = biological target: T1, Bifunctional epoxide hydrolase 2 (Homo sapiens, UniProt P34913); assay: Inhibition of recombinant human full length sEH assessed as reduction in 6-methoxy-2-naphthaldehyde formation using PHOME as substrate preincubated for 30 to 45 mins followed by substrate addition and measured after 30 to 45 mins by fluorescence assay
T1 sequence (P34913 whole entry): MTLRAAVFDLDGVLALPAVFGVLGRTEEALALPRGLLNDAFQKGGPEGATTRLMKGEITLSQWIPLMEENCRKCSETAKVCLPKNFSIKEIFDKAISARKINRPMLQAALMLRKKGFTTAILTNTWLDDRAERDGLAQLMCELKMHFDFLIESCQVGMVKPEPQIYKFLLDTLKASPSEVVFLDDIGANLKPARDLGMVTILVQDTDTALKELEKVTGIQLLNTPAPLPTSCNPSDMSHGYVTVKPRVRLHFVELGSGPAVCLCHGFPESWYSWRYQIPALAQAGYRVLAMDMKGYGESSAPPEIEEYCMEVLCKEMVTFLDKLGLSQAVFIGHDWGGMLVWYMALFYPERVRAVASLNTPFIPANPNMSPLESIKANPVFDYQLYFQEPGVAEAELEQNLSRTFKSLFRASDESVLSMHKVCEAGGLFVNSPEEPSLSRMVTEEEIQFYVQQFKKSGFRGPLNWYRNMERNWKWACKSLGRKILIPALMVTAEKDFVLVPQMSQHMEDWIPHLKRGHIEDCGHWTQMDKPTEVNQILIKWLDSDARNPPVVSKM

[2] = biological target: T2, Peroxisome proliferator-activated receptor gamma (Homo sapiens, UniProt P37231); assay: Partial agonist activity at GAL4-tagged human PPARgamma LBD expressed in HEK293T cells incubated for 12 to 14 hrs by dual-Glo luciferase assay; format: cell-based
T2 sequence (P37231 whole entry): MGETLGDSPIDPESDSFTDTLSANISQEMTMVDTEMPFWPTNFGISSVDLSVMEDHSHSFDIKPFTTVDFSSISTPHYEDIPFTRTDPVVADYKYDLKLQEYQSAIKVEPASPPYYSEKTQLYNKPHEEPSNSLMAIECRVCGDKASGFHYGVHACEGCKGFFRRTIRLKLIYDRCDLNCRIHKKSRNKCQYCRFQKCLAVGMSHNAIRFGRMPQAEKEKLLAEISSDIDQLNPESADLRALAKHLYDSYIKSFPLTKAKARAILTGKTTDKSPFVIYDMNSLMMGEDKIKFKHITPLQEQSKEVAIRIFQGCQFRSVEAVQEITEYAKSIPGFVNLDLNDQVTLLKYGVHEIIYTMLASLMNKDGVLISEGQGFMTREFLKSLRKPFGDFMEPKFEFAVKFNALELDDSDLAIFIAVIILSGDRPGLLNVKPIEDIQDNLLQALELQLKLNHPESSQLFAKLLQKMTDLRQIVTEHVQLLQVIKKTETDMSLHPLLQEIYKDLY

[3] = Stability of compound in Sprague-Dawley rat liver microsomes assessed as half life at 10 uM preincubated for 5 mins in presence of NADPH regenerating system followed by microsomal addition and measured upto 60 mins by HPLC analysis; format: ADME, Microsome; settings: time 65 min
[4] = Stability of compound in BALB/c mouse liver microsomes assessed as half life at 10 uM preincubated for 5 mins in presence of NADPH regenerating system followed by microsomal addition and measured upto 60 mins by HPLC analysis; format: ADME, Microsome; settings: time 65 min
[5] = Stability of compound in human liver microsomes assessed as half life at 10 uM preincubated for 5 mins in presence of NADPH regenerating system followed by microsomal addition and measured upto 60 mins by HPLC analysis; format: ADME, Microsome; settings: time 65 min
[6] = biological target: T3, Peroxisome proliferator-activated receptor gamma (Homo sapiens) (UniProt P37231); assay: Partial agonist activity at GAL4-tagged human PPARgamma LBD expressed in HEK293T cells at 10 uM incubated for 12 to 14 hrs by dual-Glo luciferase assay; format: cell-based; settings: time 12-14 hrs
T3 sequence (whole entry): T2 sequence (P37231 whole entry)

O=C(NCc1ccccc1C(F)(F)F)c1ccc2c(c1)ncn2Cc1cccc(F)c1
IC50 [1]: 107 nM

CC(C)n1ccc2cc(C(=O)NCc3ccc(NS(=O)(=O)C4CC4)cc3C(F)(F)F)ccc21
IC50 [1]: 5 nM | EC50 [2]: 490 nM

O=C(NCc1ccccc1C(F)(F)F)c1ccc2c(c1)[nH]c(=O)n2Cc1cccc(Cl)c1
IC50 [1]: 87 nM

O=C(NCc1ccccc1C(F)(F)F)c1ccc2c(c1)[nH]c(=O)n2Cc1ccccc1C(F)(F)F
IC50 [1]: 304 nM

O=C(NCc1ccccc1C(F)(F)F)c1ccc2c(c1)[nH]c(=O)n2Cc1ccccc1
IC50 [1]: 82 nM

CC(C)Cn1ccc2cc(C(=O)NCc3ccc(NS(=O)(=O)C4CC4)cc3C(F)(F)F)ccc21
IC50 [1]: 2 nM | half-life at 10 µM [3]: 41 min | half-life at 10 µM [4]: 53 min | half-life at 10 µM [5]: 76 min

O=C(NCc1ccccc1C(F)(F)F)c1ccc2c(c1)[nH]c(=O)n2Cc1ccc(F)cc1
IC50 [1]: 142 nM | Activity [6]: inactive

O=C(NCc1ccccc1C(F)(F)F)c1ccc2c(c1)[nH]c(=O)n2Cc1cc(F)cc(F)c1
IC50 [1]: 48 nM

COc1ccc(CNC(=O)c2ccc3c(cnn3Cc3cccc(F)c3)c2)c(C(F)(F)F)c1
IC50 [1]: 22 nM | EC50 [2]: 1590 nM

Nc1ccc(CNC(=O)c2ccc3c(ccn3Cc3cccc(F)c3)c2)c(C(F)(F)F)c1
IC50 [1]: 7 nM

O=C(NCc1ccccc1C(F)(F)F)c1ccc2c(cnn2Cc2cccc(F)c2)c1
IC50 [1]: 36 nM | EC50 [2]: 1600 nM

COc1ccc(CNC(=O)c2ccc3c(c2)[nH]c(=O)n3Cc2cccc(F)c2)c(C(F)(F)F)c1
IC50 [1]: 29 nM

COc1ccc(CNC(=O)c2ccc3c(ccn3Cc3cccc(F)c3)c2)c(C(F)(F)F)c1
IC50 [1]: 310 nM | EC50 [2]: 850 nM

CCS(=O)(=O)Nc1ccc(CNC(=O)c2ccc3c(ccn3Cc3cccc(F)c3)c2)c(C(F)(F)F)c1
IC50 [1]: 3 nM | EC50 [2]: 370 nM

O=C(NCc1ccc(NC(=O)C(F)(F)F)cc1C(F)(F)F)c1ccc2c(ccn2Cc2cccc(F)c2)c1
IC50 [1]: 5 nM

CS(=O)(=O)Cc1ccc(CNC(=O)c2ccc3c(ccn3Cc3cccc(F)c3)c2)c(C(F)(F)F)c1
IC50 [1]: 6 nM | EC50 [2]: 1350 nM

CC(C)S(=O)(=O)n1ccc2cc(C(=O)NCc3ccc(NS(=O)(=O)C4CC4)cc3C(F)(F)F)ccc21
IC50 [1]: 2 nM | EC50 [2]: 1050 nM

COc1ccc(CNC(=O)c2ccc3c(c2)ncn3Cc2cccc(F)c2)c(C(F)(F)F)c1
IC50 [1]: 40 nM

COc1ccccc1Cn1c(=O)[nH]c2cc(C(=O)NCc3ccccc3C(F)(F)F)ccc21
IC50 [1]: 319 nM | Activity [6]: inactive

COc1ccc(CNC(=O)c2ccc3c(c2)[nH]c(=O)n3Cc2ccccc2)c(C(F)(F)F)c1
IC50 [1]: 28 nM

O=C(NCc1ccccc1C(F)(F)F)c1ccc2c(c1)[nH]c(=O)n2Cc1ccc(Cl)cc1Cl
IC50 [1]: 100 nM | Activity [6]: inactive

O=C(NCc1ccc(NS(=O)(=O)C2CC2)cc1C(F)(F)F)c1ccc2[nH]ccc2c1
IC50 [1]: 29 nM | EC50 [2]: 1480 nM

O=C(NCc1ccccc1C(F)(F)F)c1ccc2c(c1)[nH]c(=O)n2Cc1ccc(Cl)cc1
IC50 [1]: 197 nM | Activity [6]: inactive

O=C(NCc1ccccc1C(F)(F)F)c1ccc2c(c1)[nH]c(=O)n2Cc1ccccn1
IC50 [1]: 456 nM | Activity [6]: inactive

O=C(NCc1ccccc1C(F)(F)F)c1ccc2c(c1)[nH]c(=O)n2Cc1ccccc1F
IC50 [1]: 55 nM | Activity [6]: inactive

CSCc1ccc(CNC(=O)c2ccc3c(ccn3Cc3cccc(F)c3)c2)c(C(F)(F)F)c1
IC50 [1]: 6 nM | EC50 [2]: 1430 nM

O=C(NCc1ccccc1C(F)(F)F)c1ccc2c(ccn2Cc2cccc(F)c2)c1
IC50 [1]: 321 nM

O=C(NCc1ccccc1C(F)(F)F)c1ccc2c(c1)[nH]c(=O)n2Cc1cccc(F)c1
IC50 [1]: 153 nM | EC50 [2]: 120 nM

O=C(NCc1ccccc1C(F)(F)F)c1ccc2c(c1)[nH]c(=O)n2Cc1ccc(Cl)c(Cl)c1
IC50 [1]: 1090 nM

O=C(NCc1ccccc1C(F)(F)F)c1ccc2c(c1)[nH]c(=O)n2Cc1ccccc1Cl
IC50 [1]: 171 nM

CN(C)CCn1ccc2cc(C(=O)NCc3ccc(NS(=O)(=O)C4CC4)cc3C(F)(F)F)ccc21
IC50 [1]: 28 nM | Activity [6]: inactive

O=C(NCc1ccccc1C(F)(F)F)c1ccc2c(c1)[nH]c(=O)n2CC1CCCCC1
IC50 [1]: 322 nM

Source: ChEMBL document CHEMBL5053551, “Structure-Based Design of Dual Partial Peroxisome Proliferator-Activated Receptor γ Agonists/Soluble Epoxide Hydrolase Inhibitors” (J Med Chem, 2021)
